One test addresses T1, human GLP-1 receptor (Homo sapiens, UniProt P43220).
T1 construct: expressed in transfected cells; host or cells: BHK (Baby Hamster Kidney) cells, clone BHK 467-12A KZ-10, stably transfected, with CRE-luciferase reporter
Put plainly: Human GLP-1 receptor in vitro potency assay (CRE-luciferase reporter, BHK cells). Type of test: cell-based. (In general: In a reporter assay the amount or activity of a reporter protein is the signal.)

In test [1] the target is T2, human amylin receptor (hAmyR3) (Homo sapiens, UniProt O60896+P30988).
T2 construct: host or cells: BHK cells (Hollex-1 line: human calcitonin receptor (a) + CRE-Luc), further transfected with human RAMP3
T2 sequence (P30988 25-474): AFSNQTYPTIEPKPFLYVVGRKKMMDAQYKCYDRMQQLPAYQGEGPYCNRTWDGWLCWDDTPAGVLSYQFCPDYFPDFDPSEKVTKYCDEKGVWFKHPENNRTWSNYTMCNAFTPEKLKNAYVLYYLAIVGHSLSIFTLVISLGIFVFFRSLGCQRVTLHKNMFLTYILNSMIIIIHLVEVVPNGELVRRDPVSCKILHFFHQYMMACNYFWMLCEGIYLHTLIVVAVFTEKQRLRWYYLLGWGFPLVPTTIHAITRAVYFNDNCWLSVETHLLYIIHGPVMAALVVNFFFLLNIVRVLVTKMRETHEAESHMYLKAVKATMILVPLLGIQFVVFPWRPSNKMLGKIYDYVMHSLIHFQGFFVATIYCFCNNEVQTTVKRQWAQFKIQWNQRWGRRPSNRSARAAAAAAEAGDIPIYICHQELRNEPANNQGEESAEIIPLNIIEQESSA
T2 sequence (O60896 24-148): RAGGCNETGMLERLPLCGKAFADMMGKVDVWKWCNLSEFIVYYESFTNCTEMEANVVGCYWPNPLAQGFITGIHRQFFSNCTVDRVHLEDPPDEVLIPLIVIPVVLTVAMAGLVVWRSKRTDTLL
Put plainly: Human amylin receptor in vitro potency assay (CRE-luciferase reporter, BHK cells).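 On all read-outs here: BHK cells expressing human calcitonin receptor plus RAMP3 (amylin-3 receptor) with a CRE-luciferase reporter, agonist activity read as luminescence from cAMP-driven transcription, 7-point serial dilutions.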 It is filed as cell-based. The conditions noted are these: for Ability to agonise the amylin receptor, in words: Tables 4a-4c.

Setting [2] is: Table 4a, BHK cells expressing human GLP-1R, CRE-Luc, 3 hours, read-out: Human GLP-1R potency [EC50 (pM)].
The mark [3] stands for this setting: Table 4a, BHK hAmyR3/CRE-Luc cells, 3 hours, read-out: Human AmyR3 potency [EC50 (pM)].

Read-outs that look alike come from different tables or passages of the source. Starred links: 1 amine or outer side, 2 acyl side, 3 side chain; linkers in the order of their positions; H or OH if unused. Non-standard residues stand in square brackets, D forms with d. Groups on a side chain read outwards from the residue. *: point of attachment. Undecanoyl(11-OPh(4-COOH)) = O=C(O)c1ccc(OCCCCCCCCCCC(=O)*)cc1; C20 diacid = O=C(O)CCCCCCCCCCCCCCCCCCC(=O)*; C18 diacid = O=C(O)CCCCCCCCCCCCCCCCC(=O)*; C16 diacid = O=C(O)CCCCCCCCCCCCCCC(=O)*; γGlu = O=C(O)[C@H](CCC(=O)[*:2])N[*:1]; C14 diacid = O=C(O)CCCCCCCCCCCCC(=O)*; Desaminohistidyl = O=C(CCc1c[nH]cn1)*; εLys = N[C@@H](CCCCN[*:1])C(=O)[*:2]; Trx = NC[C@H]1CC[C@H](C(=O)O)CC1; AEEA = NCCOCCOCC(=O)O; Aib = CC(C)(N)C(=O)O

One may read the EC50 as the concentration giving half of the maximal effect.

T1 sequence (P43220 24-463): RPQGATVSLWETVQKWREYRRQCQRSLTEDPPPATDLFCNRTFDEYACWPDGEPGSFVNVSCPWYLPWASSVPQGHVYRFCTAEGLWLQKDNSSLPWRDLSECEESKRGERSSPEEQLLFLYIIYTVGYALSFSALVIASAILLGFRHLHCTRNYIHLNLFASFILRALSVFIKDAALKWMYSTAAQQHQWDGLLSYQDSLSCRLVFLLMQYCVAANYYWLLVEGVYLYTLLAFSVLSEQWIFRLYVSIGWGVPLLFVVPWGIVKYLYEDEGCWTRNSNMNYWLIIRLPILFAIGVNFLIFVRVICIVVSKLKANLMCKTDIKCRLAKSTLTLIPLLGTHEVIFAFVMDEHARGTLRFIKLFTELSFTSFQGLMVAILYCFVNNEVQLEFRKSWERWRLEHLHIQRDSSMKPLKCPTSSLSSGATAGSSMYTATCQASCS

Take `CC[C@H](C)[C@H](NC(=O)[C@H](Cc1ccccc1)NC(=O)[C@H](CCC(=O)O)NC(=O)[C@H](CCCNC(=N)N)NC(=O)[C@H](C)NC(=O)[C@H](C)NC(=O)[C@H](CCC(N)=O)NC(=O)[C@H](CCC(=O)O)NC(=O)[C@H](CCC(=O)O)NC(=O)[C@H](CC(C)C)NC(=O)[C@H](Cc1ccc(O)cc1)NC(=O)[C@H](CO)NC(=O)[C@H](CO)NC(=O)[C@H](CCCCNC(=O)COCCOCCNC(=O)COCCOCCNC(=O)CC[C@H](NC(=O)[C@H]1CC[C@H](CNC(=O)CCCCCCCCCCCCCCCCCCC(=O)O)CC1)C(=O)O)NC(=O)[C@H](CC(=O)O)NC(=O)[C@H](CO)NC(=O)[C@@H](NC(=O)[C@H](Cc1ccccc1)NC(=O)[C@@H](NC(=O)CNC(=O)[C@H](CCC(=O)O)NC(=O)C(C)(C)NC(=O)[C@@H](N)Cc1c[nH]cn1)[C@@H](C)O)[C@@H](C)O)C(=O)N[C@@H](C)C(=O)N[C@@H](Cc1c[nH]c2ccccc12)C(=O)N[C@@H](CC(C)C)C(=O)N[C@H](C(=O)N[C@@H](CCCNC(=N)N)C(=O)NCC(=O)N[C@@H](CCCNC(=N)N)C(=O)NCC(=O)NCC(=O)NCC(=O)NCC(=O)N[C@@H](CCC(=O)O)C(=O)N[C@@H](C)C(=O)N[C@@H](CO)C(=O)N[C@@H](CCC(=O)O)C(=O)N[C@@H](CC(C)C)C(=O)N[C@@H](CO)C(=O)N[C@H](C(=O)N[C@@H](C)C(=O)N[C@@H](C)C(=O)N[C@@H](CC(C)C)C(=O)NCC(=O)N[C@@H](CCCNC(=N)N)C(=O)N[C@@H](CC(C)C)C(=O)N[C@@H](CO)C(=O)N[C@@H](C)C(=O)N[C@@H](CCC(=O)O)C(=O)N[C@@H](CC(C)C)C(=O)N[C@@H](Cc1c[nH]cn1)C(=O)N[C@@H](CCC(=O)O)C(=O)N[C@@H](CC(C)C)C(=O)N[C@@H](C)C(=O)N[C@H](C(=O)N[C@@H](CC(C)C)C(=O)N1CCC[C@H]1C(=O)N[C@@H](CCCNC(=N)N)C(=O)N[C@H](C(=O)N[C@@H](CCC(=O)O)C(=O)N[C@H](C(=O)NCC(=O)N[C@@H](CO)C(=O)NCC(=O)N[C@@H](CO)C(=O)N1CCC[C@H]1C(N)=O)[C@@H](C)O)[C@@H](C)O)[C@@H](C)O)[C@@H](C)O)C(C)C` [Compound 0266]: the EC50 is 6.3 pM on human GLP-1 receptor (setting [2]) and 8.5 pM in test [1] (setting [3]).
For `CC[C@H](C)[C@H](NC(=O)[C@H](Cc1ccccc1)NC(=O)[C@H](CCC(=O)O)NC(=O)[C@H](CCCNC(=N)N)NC(=O)[C@H](C)NC(=O)[C@H](C)NC(=O)[C@H](CCC(N)=O)NC(=O)[C@H](CCC(=O)O)NC(=O)[C@H](CCC(=O)O)NC(=O)[C@H](CC(C)C)NC(=O)[C@H](Cc1ccc(O)cc1)NC(=O)[C@H](CO)NC(=O)[C@H](CO)NC(=O)[C@H](CCCCNC(=O)COCCOCCNC(=O)COCCOCCNC(=O)CC[C@H](NC(=O)CCCCCCCCCCCCCCCCC(=O)O)C(=O)O)NC(=O)[C@H](CC(=O)O)NC(=O)[C@H](CO)NC(=O)[C@@H](NC(=O)[C@H](Cc1ccccc1)NC(=O)[C@@H](NC(=O)CNC(=O)[C@H](CCC(=O)O)NC(=O)[C@H](Cc1c[nH]c2ccccc12)NC(=O)[C@@H](N)Cc1c[nH]cn1)[C@@H](C)O)[C@@H](C)O)C(=O)N[C@@H](CCC(=O)O)C(=O)N[C@@H](Cc1c[nH]c2ccccc12)C(=O)N[C@@H](CC(C)C)C(=O)N[C@H](C(=O)N[C@@H](CCCNC(=N)N)C(=O)NCC(=O)N[C@@H](CCCNC(=N)N)C(=O)NCC(=O)N[C@@H](CCC(=O)O)C(=O)N[C@@H](C)C(=O)N[C@@H](CO)C(=O)N[C@@H](CCC(=O)O)C(=O)N[C@@H](CC(C)C)C(=O)N[C@@H](CO)C(=O)N[C@H](C(=O)N[C@@H](C)C(=O)N[C@@H](C)C(=O)N[C@@H](CC(C)C)C(=O)NCC(=O)N[C@@H](CCCNC(=N)N)C(=O)N[C@@H](CC(C)C)C(=O)N[C@@H](CO)C(=O)N[C@@H](C)C(=O)N[C@@H](CCC(=O)O)C(=O)N[C@@H](CC(C)C)C(=O)N[C@@H](Cc1c[nH]cn1)C(=O)N[C@@H](CCC(=O)O)C(=O)N[C@@H](CC(C)C)C(=O)N[C@@H](C)C(=O)N[C@H](C(=O)N[C@@H](CC(C)C)C(=O)N1CCC[C@H]1C(=O)N[C@@H](CCCNC(=N)N)C(=O)N[C@H](C(=O)N[C@@H](CCC(=O)O)C(=O)N[C@H](C(=O)NCC(=O)N[C@@H](CO)C(=O)NCC(=O)N[C@@H](CO)C(=O)N1CCC[C@H]1C(N)=O)[C@@H](C)O)[C@@H](C)O)[C@@H](C)O)[C@@H](C)O)C(C)C` [Compound 0273], the figures for the 50% effective concentration (EC50) (on human GLP-1 receptor; in test [1]) were 24.9 pM and 18 pM, respectively.
Consider “Desaminohistidyl-AEGTFTSDVSSYLEEQAAREFIAWLVRGRK([AEEA-AEEA-γGlu-C18 diacid])EASELSTAALGRLSAELHELATLPRTETGSGSP-NH2 [Compound 0051]”, for which the half-maximal effective concentration (EC50) is 14.3 pM on human GLP-1 receptor (setting [2]) and 19.5 pM in test [1] (setting [3]).
The corresponding values for “Desaminohistidyl-[Aib]EGTFTSDVSSYLEEQAAREFIAWLVRGRK([γGlu-C20 diacid])EASELSTAALGRLSAELHELATLPRTETGSGSP-NH2 [Compound 0142]” are 88.2 pM and 15.4 pM.
In the case of “H-Aib-EGTFTSDVSSYLEEQAAREFIAWLVRGR-K([2-[2-[2-[[2-[2-[2-[[(4S)-4-Carboxy-4-(17-Carboxyheptadecanoylamino)Butanoyl]Amino]Ethoxy]Ethoxy]Acetyl]Amino]Ethoxy]Ethoxy]Acetyl])-GGGGEKCNTATCATQRLAEFLRHSSNNFGPILPPTNVGSNTP-amide [Comparator compound 0672, reference compound]”, the “Ability to agonise the GLP-1 receptor, in words” value on human GLP-1 receptor (Tables 4a-4c) is “retained their potencies on the GLP-1 receptor”. Also, the EC50 stood at 2.2 pM at human GLP-1 receptor (read-out: Human GLP-1 R potency [EC50 (pM)], Table 4b, reference and comparator compounds); 606 pM in test [1] (Table 4b, reference and comparator compounds, read-out: Human AmyR3 potency [EC50 (pM)]). The “Ability to agonise the amylin receptor, in words” value in test [1] is “impaired potency on the amylin receptor”.
As to “H-Aib-EGTFTSDVSSYLEGQAA-K([2-[2-[2-[[2-[2-[2-[[(4S)-4-Carboxy-4-(17-Carboxyheptadecanoylamino)Butanoyl]Amino]Ethoxy]Ethoxy]Acetyl]Amino]Ethoxy]Ethoxy]Acetyl])-EFIAWLVRGRGGQEPGQEPCNTATCATQRLAEFLRHSSNNFGPILPPTNVGSNTP-amide [Comparator compound 0015, reference compound]”, the EC50 on human GLP-1 receptor (read-out: Human GLP-1 R potency [EC50 (pM)], Table 4c, further comparator compounds) came to 45 pM; in test [1] (Table 4c, further comparator compounds, read-out: Human AmyR3 potency [EC50 (pM)]) it was 312 pM. In addition, the “Ability to agonise the amylin receptor, in words” value in test [1] was “poor agonist of the amylin receptor”.
For “H-HAEGTFTSDK([AEEA-AEEA-γGlu-C16 diacid])SSYLEEK([AEEA-AEEA-γGlu-C16 diacid])AAREFIEWLVRGRGEASELSTAALGRLSAELHELATLPRTETGSGSP-NH2 [Compound 0475]”, the EC50 at human GLP-1 receptor (setting [2]) came to 70.4 pM; in test [1] (setting [3]) it was 66.8 pM.
The corresponding values for “H-HAEGTFTSDVSK([AEEA-AEEA-γGlu-C16 diacid])YLEEQAVREFIAK([AEEA-AEEA-γGlu-C16 diacid])LVRGRGGGEASELSTAALGRLSAELHELATLPRTETGSGSP-NH2 [Compound 0482]” are 36.5 pM and 31.8 pM.
On to “H-HAEGTFTSDVSSYLEEK([AEEA-AEEA-γGlu-C20 diacid])AAREFIEWLVRGRGEASELSTAALGRLSAELHELATLPRTETGSGSP-NH2 [Compound 0474]”, for which the EC50 amounted to 2.9 pM on human GLP-1 receptor (setting [2]) and 21.8 pM in test [1] (setting [3]).
Taken in the same sequence, the figures for “H-HAEGTFTSDVSSYLEEK([AEEA-AEEA-γGlu-Trx-C20 diacid])AAREFIEWLVRGRGEASELSTAALGRLSAELHELATLPRTETGSGSP-NH2 [Compound 0414]” were 11.2 pM and 17.7 pM.
In the case of “H-HGEGTFTSDVSSYLEEQAARK([AEEA-AEEA-γGlu-C14 diacid])FIEWLVRGK([AEEA-AEEA-γGlu-C14 diacid])GEASELSTAALGRLSAELHELATLPRTETGSGSP-NH2 [Compound 0039]”, the concentration giving a half-maximal response (EC50) at human GLP-1 receptor (setting [2]) stood at 34.8 pM; in test [1] (setting [3]) it was 59.5 pM.
Taken in the same sequence, the figures for “H-HGEGTFTSDVSSYLEEQAARK([AEEA-AEEA-γGlu-C16 diacid])FIEWLVRGK([AEEA-AEEA-γGlu-C16 diacid])GEGGEASELSTAALGRLSAELHELATLPRTETGSGSP-NH2 [Compound 0087]” were 23.8 pM and 97.9 pM.
“H-HGEGTFTSDVSSYLEEQAARK([AEEA-AEEA-γGlu-C18 diacid])FIEWLVRGK([AEEA-AEEA-γGlu-C18 diacid])GEGGEASELSTAALGRLSAELHELATLPRTETGSGSP-NH2 [Compound 0090]”: the concentration for a half-maximal effect (EC50) on human GLP-1 receptor (setting [2]) was 32.6 pM; in test [1] (setting [3]) it was 70.9 pM.
Turning to “H-HWEGTFTSDVSSYLEEQAARK([AEEA-AEEA-γGlu-Undecanoyl(11-OPh(4-COOH))])FIEWLVRGRGEGGGGGASELSTAALGRLSK([AEEA-AEEA-γGlu-Undecanoyl(11-OPh(4-COOH))])ELHELATLPRTETGSGSP-NH2 [Compound 0255]”, the half-maximal effective concentration (EC50) at human GLP-1 receptor worked out at 2.5 pM; in test [1], 28.6 pM.
In the case of “H-HWEGTFTSDVSSYLEEQAARK([εLys-AEEA-AEEA-γGlu-Trx-C20 diacid])FIEWLVRGRGEASELSTAALGRLSAELHELATLPRTETGSGSP-NH2 [Compound 0437]”, the 50% effective concentration (EC50) at human GLP-1 receptor (setting [2]) turned out to be 12 pM; in test [1] (setting [3]), 11.8 pM.
The corresponding values for “H-H[Aib]EGTFTSDK([AEEA-AEEA-γGlu-C16 diacid])SSYLEEQAAREFIAWLVRGRGGGGGEASELSTAALGRLSAELHELATLK([AEEA-AEEA-γGlu-C16 diacid])RTETGSGSP-NH2 [Compound 0261]” are 17.4 pM and 23.9 pM.
The corresponding values for “H-H[Aib]EGTFTSDK([AEEA-AEEA-γGlu-C16 diacid])SSYLEEQAAREFIAWLVRGRGGGGGEASELSTAALGRLSAELHELK([AEEA-AEEA-γGlu-C16 diacid])TLPRTETGSGSP-NH2 [Compound 0260]” are 11.9 pM and 41.8 pM.
The corresponding values for “H-H[Aib]EGTFTSDVSK([AEEA-AEEA-γGlu-C14 diacid])YLEEQAVREFIAK([AEEA-AEEA-γGlu-C14 diacid])LVRGRGGGEASELSTAALGRLSAELHELATLPRTETGSGSP-NH2 [Compound 0484]” are 72.8 pM and 32.5 pM.

The values above are taken from patent US20230331803A1, “CO-AGONISTS OF THE GLP-1 AND AMYLIN RECEPTORS” (priority 2020, published 2023).
